Experimental data taken from patent US11407737B2, “Inhibitors of RAF kinases” (Kinnate Biopharma Inc., priority 2020, dated 2022).
Where a name gives a salt, the structure may show the parent alone.

Molecular target: human RAF1 (Homo sapiens (Human), UniProt P04049)
Experiment: Protein kinase assay (radiometric 33P-ATP, MEK1 (K97R) substrate), RAF-1
Assay type: biochemical
Conditions: human MEK1 (K97R) substrate 3 micromolar, ATP 10 micromolar; 10-dose, 3-fold serial dilution starting at 10 micromolar; read-out: RAF-1 IC50
Method: Example 1: Kinase Assay Protocol
Assay platform was used to measure kinase/inhibitor interactions as described previously (Anastassiadis et al., 2011). In brief, for each reaction, kinase and substrate were mixed in a buffer containing 20 mM HEPES (pH 7.5), 10 mM MgCl2, 1 mM EGTA, 0.02% Brij35, 0.02 mg/mL BSA, 0.1 mM Na3VO4, 2 mM DTT, and 1% DMSO. All compounds were solubilized in DMSO. Compounds were then added to each reaction mixture via acoustic dispense using an ECHO 550 nanoliter dispenser. For human RAF1 testing, human MEK1 (K97R) was used as a substrate at a concentration of 3 micromolar, with a final ATP concentration of 10 micromolar. For human BRAF testing, human MEK1 (K97R) was used as a substrate at 1 micromolar concentration, with a final ATP concentration of 25 micromolar. […] After a 20-min incubation, ATP (Sigma-Aldrich, St. Louis, Mo. 63178) and [g33P] ATP (specific activity 10 microCi/microliter) purchased at PerkinElmer (Boston, Mass., 02118 Cat #BLU 003H250UC) were added at a final total concentration of […]. Reactions were carried out at room temperature for 2 hr and spotted onto P81 ion exchange cellulose chromatography paper (Reaction Biology). Filter paper was washed in 0.75% phosphoric acid to remove unincorporated ATP. The percent remaining kinase activity relative to a vehicle-containing (DMSO) kinase reaction was calculated for each kinase/inhibitor pair. IC50 values were calculated using Prism 5 (GraphPad).

Sequence of human RAF1 (P04049 whole entry): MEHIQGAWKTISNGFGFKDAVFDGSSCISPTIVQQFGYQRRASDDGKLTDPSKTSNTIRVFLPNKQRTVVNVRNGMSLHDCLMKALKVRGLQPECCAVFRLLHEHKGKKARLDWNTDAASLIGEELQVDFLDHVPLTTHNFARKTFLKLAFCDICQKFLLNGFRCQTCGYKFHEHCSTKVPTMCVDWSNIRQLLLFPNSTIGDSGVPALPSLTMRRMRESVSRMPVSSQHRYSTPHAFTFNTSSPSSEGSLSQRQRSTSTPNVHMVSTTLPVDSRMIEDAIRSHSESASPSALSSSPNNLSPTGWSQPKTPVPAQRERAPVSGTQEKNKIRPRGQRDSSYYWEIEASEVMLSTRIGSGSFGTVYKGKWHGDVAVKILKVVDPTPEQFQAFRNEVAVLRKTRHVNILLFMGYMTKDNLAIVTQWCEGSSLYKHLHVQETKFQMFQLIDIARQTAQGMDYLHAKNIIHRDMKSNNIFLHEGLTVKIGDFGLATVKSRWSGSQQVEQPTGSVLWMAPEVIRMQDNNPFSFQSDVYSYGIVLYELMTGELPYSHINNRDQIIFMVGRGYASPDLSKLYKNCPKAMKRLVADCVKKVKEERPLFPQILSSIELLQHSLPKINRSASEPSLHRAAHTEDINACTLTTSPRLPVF

Compared with `Cc1ccc(NC(=O)N2CC[C@@H](CC(F)(F)F)C2)cc1-c1cc(CCCO)nc(N2CCOCC2)c1` [Example 24, (3S)—N-[3-[2-(3-hydroxypropyl)-6-(morpholin-4-yl)pyridin-4-yl]-4-methylphenyl]-3-(2,2,2-trifluoroethyl)pyrrolidine-1-carboxamide], `Cc1ccc(NC(=O)N2CC[C@@H](CC(F)(F)F)C2)cc1-c1cc(CCO)nc(N2CCOCC2)c1` [Example 32, (3S)—N-[3-[2-(2-hydroxyethyl)-6-(morpholin-4-yl)pyridin-4-yl]-4-methylphenyl]-3-(2,2,2-trifluoroethyl)pyrrolidine-1-carboxamide] is higher in IC50: less than 1 nM for the first, 1 to 10 nM for the second.

Compared with `COc1cc(-c2cc(-c3cc(NC(=O)N4CC[C@@H](CC(F)(F)F)C4)ccc3C)cc(N3CCOCC3)n2)ccn1` [Example 25, (3S)—N-[3-[2-methoxy-6-(morpholin-4-yl)-[2,4-bipyridin]-4-yl]-4-methylphenyl]-3-(2,2,2-trifluoroethyl)pyrrolidine-1-carboxamide], `Cc1ccc(NC(=O)N2CC[C@@H](CC(F)(F)F)C2)cc1-c1cc(-c2ccnc(O)c2)nc(N2CCOCC2)c1` [Example 30, (3S)—N-[3-[2-hydroxy-6-(morpholin-4-yl)-[2,4-bipyridin]-4-yl]-4-methylphenyl]-3-(2,2,2-trifluoroethyl)pyrrolidine-1-carboxamide] is higher in IC50: less than 1 nM for the first, 1 to 10 nM for the second. The first is the more potent here.

`Cc1ccc(NC(=O)N2CC[C@@H](CC(F)(F)F)C2)cc1-c1cc(-c2cnc(O)o2)nc(N2CCOCC2)c1` [Example 26, (3S)—N-[3-[2-(2-hydroxy-1,3-oxazol-5-yl)-6-(morpholin-4-yl)pyridin-4-yl]-4-methylphenyl]-3-(2,2,2-trifluoroethyl)pyrrolidine-1-carboxamide] and `Cc1ccc(NC(=O)N2CC[C@@H](CC(F)(F)F)C2)cc1-c1cc(-c2ccn(C)n2)nc(N2CCOCC2)c1` [Example 36, (3S)—N-[4-methyl-3-[2-(1-methylpyrazol-3-yl)-6-(morpholin-4-yl)pyridin-4-yl]phenyl]-3-(2,2,2-trifluoroethyl)pyrrolidine-1-carboxamide] cannot be ordered by IC50: less than 1 nM for the first, less than 1 nM for the second.

Compared with `Cc1ccc(NC(=O)N2CC[C@@H](CC(F)(F)F)C2)cc1-c1cc(N2CCOCC2)nc(C(C)(C)O)c1` [Example 27, (3S)—N-[3-[2-(2-hydroxypropan-2-yl)-6-(morpholin-4-yl)pyridin-4-yl]-4-methylphenyl]-3-(2,2,2-trifluoroethyl)pyrrolidine-1-carboxamide], `Cc1ccc(NC(=O)N2CC[C@@H](CC(F)(F)F)C2)cc1-c1cc(-c2cn(C)nc2C)nc(N2CCOCC2)c1` [Example 37, (3S)—N-[3-[2-(1,3-dimethylpyrazol-4-yl)-6-(morpholin-4-yl)pyridin-4-yl]-4-methylphenyl]-3-(2,2,2-trifluoroethyl)pyrrolidine-1-carboxamide] is lower in IC50: 10 to 100 nM for the first, 1 to 10 nM for the second.

Compared with `Cc1ccc(NC(=O)N2CC[C@@H](CC(F)(F)F)C2)cc1-c1cc(C2CCCNC2)nc(N2CCOCC2)c1` (stereo partly drawn) [Example 28, (3S)—N-[4-methyl-3-[2-(morpholin-4-yl)-6-(piperidin-3-yl)pyridin-4-yl]phenyl]-3-(2,2,2-trifluoroethyl)pyrrolidine-1-carboxamide], `Cc1ccc(NC(=O)N2CC[C@@H](CC(F)(F)F)C2)cc1-c1cc(C2CCNC2)nc(N2CCOCC2)c1` (stereo partly drawn) [Example 34, (3S)—N-[4-methyl-3-[2-(morpholin-4-yl)-6-(pyrrolidin-3-yl)pyridin-4-yl]phenyl]-3-(2,2,2-trifluoroethyl)pyrrolidine-1-carboxamide] is lower in IC50: 10 to 100 nM for the first, less than 1 nM for the second.

`Cc1ccc(NC(=O)N2CC[C@@H](CC(F)(F)F)C2)cc1-c1cc(C2CCCN(C)C2)nc(N2CCOCC2)c1` (stereo partly drawn) [Example 29, (3S)—N-[4-methyl-3-[2-(1-methylpiperidin-3-yl)-6-(morpholin-4-yl)pyridin-4-yl]phenyl]-3-(2,2,2-trifluoroethyl)pyrrolidine-1-carboxamide] and `Cc1ccc(NC(=O)N2CC[C@@H](CC(F)(F)F)C2)cc1-c1cc(C2CCN(C)C2)nc(N2CCOCC2)c1` (stereo partly drawn) [Example 38, (3S)—N-(4-methyl-3-(2-(1-methylpyrrolidin-3-yl)-6-morpholinopyridin-4-yl)phenyl)-3-(2,2,2-trifluoroethyl)pyrrolidine-1-carboxamide formate] fall in the same range of IC50: 1 to 10 nM for the first, 1 to 10 nM for the second.

Compared with `Cc1ccc(NC(=O)N2CC[C@@H](CC(F)(F)F)C2)cc1-c1cc(C2=CCN(C)CC2)nc(N2CCOCC2)c1` [Example 31, (3S)—N-[4-methyl-3-[1′-methyl-6-(morpholin-4-yl)-3′,6′-dihydro-2′H-[2,4′-bipyridin]-4-yl]phenyl]-3-(2,2,2-trifluoroethyl)pyrrolidine-1-carboxamide], `Cc1ccc(NC(=O)N2CC[C@@H](CC(F)(F)F)C2)cc1-c1cc(C2=CCN(C)C2)nc(N2CCOCC2)c1` [Example 35, (3S)—N-[4-methyl-3-[2-(1-methyl-2,5-dihydropyrrol-3-yl)-6-(morpholin-4-yl)pyridin-4-yl]phenyl]-3-(2,2,2-trifluoroethyl)pyrrolidine-1-carboxamide] is lower in IC50: 10 to 100 nM for the first, 1 to 10 nM for the second. The second is the more potent here.

First: Cc1ccc(NC(=O)N2CC[C@@H](CC(F)(F)F)C2)cc1-c1cc(-c2cn[nH]c2)nc(N2CCOCC2)c1 [Example 33, (3S)—N-[4-methyl-3-[2-(morpholin-4-yl)-6-(1H-pyrazol-4-yl)pyridin-4-yl]phenyl]-3-(2,2,2-trifluoroethyl)pyrrolidine-1-carboxamide]
Second: Cc1ccc(NC(=O)N2CC[C@@H](CC(F)(F)F)C2)cc1-c1cc(-c2c[nH]nc2C)nc(N2CCOCC2)c1 [Example 47, (3S)—N-[4-methyl-3-[2-(3-methyl-1H-pyrazol-4-yl)-6-(morpholin-4-yl)pyridin-4-yl]phenyl]-3-(2,2,2-trifluoroethyl)pyrrolidine-1-carboxamide]
The IC50 of the first is lower: less than 1 nM for the first, 1 to 10 nM for the second.

`Cc1ccc(NC(=O)N2CC[C@@H](CC(F)(F)F)C2)cc1-c1cc(C2CCN(C)CC2)nc(N2CCOCC2)c1` [Example 39, (S)—N-(4-methyl-3-(2-(1-methylpiperidin-4-yl)-6-morpholinopyridin-4-yl)phenyl)-3-(2,2,2-trifluoroethyl)pyrrolidine-1-carboxamide formate] and `Cc1ccc(NC(=O)N2CC[C@@H](CC(F)(F)F)C2)cc1-c1cc(-c2cc(N)n(C)n2)nc(N2CCOCC2)c1` [Example 44, (3S)-N-[3-[2-(5-amino-1-methylpyrazol-3-yl)-6-(morpholin-4-yl)pyridin-4-yl]-4-methylphenyl]-3-(2,2,2-trif1uoroethyl)pyrrolidine-1-carboxamide] fall in the same range of IC50: 1 to 10 nM for the first, 1 to 10 nM for the second.

`Cc1ccc(NC(=O)N2CC[C@@H](CC(F)(F)F)C2)cc1-c1cc(-c2ccnc(N)c2)nc(N2CCOCC2)c1` [Example 40, (3S)—N-[3-[2′-amino-6-(morpholin-4-yl)-[2,4′-bipyridin]-4-yl]-4-methylphenyl]-3-(2,2,2-trifluoroethyl)pyrrolidine-1-carboxamide] and `Cc1ccc(NC(=O)N2CC[C@@H](CC(F)(F)F)C2)cc1-c1cc(-c2ccnc(C(F)F)c2)nc(N2CCOCC2)c1` [Example 46, (3S)—N-[3-[2′-(difluoromethyl)-6-(morpholin-4-yl)-[2,4′-bipyridin]-4-yl]-4-methylphenyl]-3-(2,2,2-trifluoroethyl)pyrrolidine-1-carboxamide] fall in the same range of IC50: 1 to 10 nM for the first, 1 to 10 nM for the second.

First: Cc1ccc(NC(=O)N2CC[C@@H](CC(F)(F)F)C2)cc1-c1cc(-c2cnn(C(F)F)c2)nc(N2CCOCC2)c1 [Example 41, (3S)—N-(3-[2-[1-(difluoromethyl)pyrazol-4-yl]-6-(morpholin-4-yl)pyridin-4-yl]-4-methylphenyl)-3-(2,2,2-trifluoroethyl)pyrrolidine-1-carboxamide]
Second: Cc1ccc(NC(=O)N2CC[C@@H](CC(F)(F)F)C2)cc1-c1cc(-c2cnn(C)c2C)nc(N2CCOCC2)c1 [Example 48, (3S)—N-[3-[2-(1,5-dimethylpyrazol-4-yl)-6-(morpholin-4-yl)pyridin-4-yl]-4-methylphenyl]-3-(2,2,2-trifluoroethyl)pyrrolidine-1-carboxamide]
The IC50 of the first is higher: 1 to 10 nM for the first, less than 1 nM for the second.

`Cc1ccc(NC(=O)N2CC[C@@H](CC(F)(F)F)C2)cc1-c1cc(-c2cscn2)nc(N2CCOCC2)c1` [Example 42, (3S)—N-[4-methyl-3-[2-(morpholin-4-yl)-6-(1,3-thiazol-4-yl)pyridin-4-yl]phenyl]-3-(2,2,2-trifluoroethyl)pyrrolidine-1-carboxamide] and `Cc1ccc(NC(=O)N2CC[C@@H](CC(F)(F)F)C2)cc1-c1cc(-c2ccnc(N)n2)nc(N2CCOCC2)c1` [Example 45, (3S)—N-[3-[2-(2-aminopyrimidin-4-yl)-6-(morpholin-4-yl)pyridin-4-yl]-4-methylphenyl]-3-(2,2,2-trifluoroethyl)pyrrolidine-1-carboxamide] fall in the same range of IC50: 1 to 10 nM for the first, 1 to 10 nM for the second.

With `Cc1ccc(NC(=O)N2CC[C@@H](CC(F)(F)F)C2)cc1-c1cc(-c2cnc(N)[nH]2)nc(N2CCOCC2)c1` [Example 43, (3S)—N-[3-[2-(2-amino-3H-imidazol-4-yl)-6-(morpholin-4-yl)pyridin-4-yl]-4-methylphenyl]-3-(2,2,2-trifluoroethyl)pyrrolidine-1-carboxamide] the IC50 was 1 to 10 nM.
